From the supplement of paper PMC12076712 come the findings set out here.

One assay has as its target CLK1 (UniProt P49759). In words: pIC50, competition of probe 3 labelling in live cells. To be noted: cell material: Jurkat cells.
A further assay addresses AKT1 (UniProt P31749). The assay is described as follows: pIC50, kinobeads binding competition. Summed up: (§1)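 Either living Jurkat cells (60 min at 37 °C, then lysis) or lysates (60 min at 4 °C) were treated with nine compound concentrations from a top of 30 μM, in 1:4 steps for cells and 1:5 steps for lysates. The lysates were from Jurkat cells or a 1:1:1:1 mix of HEK293, K-562, HepG2 and placenta. Kinobeads-bound proteins were digested and quantified by TMT10 LC-MS/MS. pIC50 was calculated by logistic dose-response fitting (R drc package) of fold changes relative to vehicle, in biological duplicates.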

The target of a further assay is T1, CAMK4 (UniProt Q16566).
T1 sequence (whole entry): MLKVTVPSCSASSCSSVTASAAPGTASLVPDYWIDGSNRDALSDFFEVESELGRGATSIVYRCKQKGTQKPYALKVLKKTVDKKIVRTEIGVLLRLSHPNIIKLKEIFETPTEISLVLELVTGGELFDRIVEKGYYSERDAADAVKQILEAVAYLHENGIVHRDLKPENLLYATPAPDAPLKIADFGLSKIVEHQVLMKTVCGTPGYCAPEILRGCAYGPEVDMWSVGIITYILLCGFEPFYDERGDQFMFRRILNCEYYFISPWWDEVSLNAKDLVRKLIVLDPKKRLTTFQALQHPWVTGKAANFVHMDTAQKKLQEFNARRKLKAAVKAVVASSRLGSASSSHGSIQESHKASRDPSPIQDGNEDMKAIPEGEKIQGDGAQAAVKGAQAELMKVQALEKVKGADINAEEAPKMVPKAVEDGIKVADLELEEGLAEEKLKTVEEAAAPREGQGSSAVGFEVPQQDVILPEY
In words: pIC50, kinobeads binding competition. Summed up:
as §1

Another assay addresses MAST1 (UniProt Q9Y2H9). The assay is described as follows: pIC50, kinobeads binding competition. To be noted: cell material: Jurkat lysate. Summed up:
as §1

The target of another assay is T2, PBK (UniProt Q96KB5).
T2 sequence (whole entry): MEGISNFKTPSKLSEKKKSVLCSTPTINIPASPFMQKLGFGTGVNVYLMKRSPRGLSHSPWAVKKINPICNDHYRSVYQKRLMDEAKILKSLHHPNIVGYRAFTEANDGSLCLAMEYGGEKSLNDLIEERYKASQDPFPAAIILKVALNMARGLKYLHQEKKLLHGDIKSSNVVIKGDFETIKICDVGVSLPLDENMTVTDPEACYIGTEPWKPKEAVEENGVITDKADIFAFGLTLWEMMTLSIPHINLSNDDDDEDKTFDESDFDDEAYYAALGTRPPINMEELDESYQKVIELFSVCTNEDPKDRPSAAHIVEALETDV
The assay is described as follows: pIC50, kinobeads binding competition. To be noted: cell material: Jurkat cells. Summed up:
as §1

Another assay has as its target PRKCH (UniProt P24723). In words: pIC50, kinobeads binding competition. An outline of the steps:
as §1

The next assay concerns the target RAF1 (UniProt P04049). In words: pIC50, kinobeads binding competition. An outline of the steps:
as §1

The target of the next assay is T3, SNRK (UniProt Q9NRH2).
T3 sequence (whole entry): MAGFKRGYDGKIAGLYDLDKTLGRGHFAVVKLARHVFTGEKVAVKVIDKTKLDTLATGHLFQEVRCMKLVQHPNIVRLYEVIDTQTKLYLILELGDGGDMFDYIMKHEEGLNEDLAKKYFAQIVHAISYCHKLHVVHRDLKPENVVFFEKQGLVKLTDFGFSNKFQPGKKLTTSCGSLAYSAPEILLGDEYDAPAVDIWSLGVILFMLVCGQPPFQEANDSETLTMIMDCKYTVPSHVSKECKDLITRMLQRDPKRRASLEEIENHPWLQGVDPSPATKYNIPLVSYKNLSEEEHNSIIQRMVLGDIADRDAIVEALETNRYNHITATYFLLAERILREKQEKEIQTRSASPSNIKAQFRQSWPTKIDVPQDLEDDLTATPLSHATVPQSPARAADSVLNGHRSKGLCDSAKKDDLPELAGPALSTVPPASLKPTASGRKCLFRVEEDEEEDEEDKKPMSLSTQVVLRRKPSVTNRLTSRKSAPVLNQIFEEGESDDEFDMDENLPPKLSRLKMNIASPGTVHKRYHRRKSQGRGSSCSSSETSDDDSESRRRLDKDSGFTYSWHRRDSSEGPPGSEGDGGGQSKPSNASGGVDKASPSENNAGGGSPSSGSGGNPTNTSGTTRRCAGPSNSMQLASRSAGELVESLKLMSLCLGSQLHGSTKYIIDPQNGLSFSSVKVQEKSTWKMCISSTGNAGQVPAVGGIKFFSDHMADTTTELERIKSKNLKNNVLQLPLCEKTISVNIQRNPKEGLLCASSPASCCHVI
In words: pIC50, kinobeads binding competition. Summed up: as §1

The target of another assay is SRPK2 (UniProt P78362). The assay is described as follows: pIC50, kinobeads binding competition. An outline of the steps:
as §1

For the next assay, the target named is TLK2 (UniProt Q86UE8). In words: pIC50, kinobeads binding competition. The conditions noted are these: cell material: Jurkat cells. Summed up:
as §1

Another assay addresses TRRAP (UniProt Q9Y4A5). In words: pIC50, kinobeads binding competition. To be noted: cell material: Jurkat cells. An outline of the steps:
as §1

In a further assay the target is T4, TXK (UniProt P42681).
T4 sequence (whole entry): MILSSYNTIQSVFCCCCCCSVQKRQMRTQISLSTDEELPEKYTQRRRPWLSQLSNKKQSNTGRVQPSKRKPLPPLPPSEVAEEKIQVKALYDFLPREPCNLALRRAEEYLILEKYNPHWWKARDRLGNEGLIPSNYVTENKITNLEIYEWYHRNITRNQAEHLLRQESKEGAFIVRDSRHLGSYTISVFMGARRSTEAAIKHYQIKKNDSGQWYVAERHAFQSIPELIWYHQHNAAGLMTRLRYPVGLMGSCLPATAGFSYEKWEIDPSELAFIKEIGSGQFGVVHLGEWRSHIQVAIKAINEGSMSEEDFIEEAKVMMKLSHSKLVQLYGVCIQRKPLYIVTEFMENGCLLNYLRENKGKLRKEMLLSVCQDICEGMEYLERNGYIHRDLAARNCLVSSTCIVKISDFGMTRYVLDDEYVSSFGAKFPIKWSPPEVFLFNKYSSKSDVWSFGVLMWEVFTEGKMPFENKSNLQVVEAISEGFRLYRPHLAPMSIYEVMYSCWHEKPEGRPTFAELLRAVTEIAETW
The assay is described as follows: pIC50, kinobeads binding competition. An outline of the steps: as §1

The target in the next assay is UniProt P23443. The assay is described as follows: pIC50, kinobeads binding competition. Summed up:
as §1

The target in the next assay is UniProt Q6XUX3. The assay is described as follows: pIC50, kinobeads binding competition. The conditions noted are these: cell material: Lysate mix. Summed up:
as §1

The next assay concerns the target LZK (UniProt O43283). The assay is described as follows: pIC50, kinobeads binding competition. To be noted: cell material: Lysate mix. Summed up: as §1

Chain of RAF1 (P04049 whole entry): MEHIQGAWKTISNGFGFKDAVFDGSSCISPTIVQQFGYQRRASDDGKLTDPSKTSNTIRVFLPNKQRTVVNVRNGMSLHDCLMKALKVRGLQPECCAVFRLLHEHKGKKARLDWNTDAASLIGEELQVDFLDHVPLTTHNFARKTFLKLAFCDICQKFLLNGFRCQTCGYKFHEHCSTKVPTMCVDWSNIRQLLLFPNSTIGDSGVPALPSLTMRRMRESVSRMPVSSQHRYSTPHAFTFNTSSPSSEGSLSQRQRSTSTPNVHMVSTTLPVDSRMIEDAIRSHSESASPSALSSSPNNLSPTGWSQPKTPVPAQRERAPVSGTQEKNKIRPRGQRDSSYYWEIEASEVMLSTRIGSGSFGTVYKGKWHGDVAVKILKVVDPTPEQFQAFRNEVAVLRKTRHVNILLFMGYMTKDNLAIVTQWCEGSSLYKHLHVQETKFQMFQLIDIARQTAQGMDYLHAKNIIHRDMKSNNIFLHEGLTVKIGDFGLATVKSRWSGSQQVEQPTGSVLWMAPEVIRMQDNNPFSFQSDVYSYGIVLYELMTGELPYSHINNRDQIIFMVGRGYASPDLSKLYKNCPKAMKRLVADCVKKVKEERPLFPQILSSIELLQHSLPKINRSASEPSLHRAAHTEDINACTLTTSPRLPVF
Chain of PRKCH (P24723 whole entry, looked up): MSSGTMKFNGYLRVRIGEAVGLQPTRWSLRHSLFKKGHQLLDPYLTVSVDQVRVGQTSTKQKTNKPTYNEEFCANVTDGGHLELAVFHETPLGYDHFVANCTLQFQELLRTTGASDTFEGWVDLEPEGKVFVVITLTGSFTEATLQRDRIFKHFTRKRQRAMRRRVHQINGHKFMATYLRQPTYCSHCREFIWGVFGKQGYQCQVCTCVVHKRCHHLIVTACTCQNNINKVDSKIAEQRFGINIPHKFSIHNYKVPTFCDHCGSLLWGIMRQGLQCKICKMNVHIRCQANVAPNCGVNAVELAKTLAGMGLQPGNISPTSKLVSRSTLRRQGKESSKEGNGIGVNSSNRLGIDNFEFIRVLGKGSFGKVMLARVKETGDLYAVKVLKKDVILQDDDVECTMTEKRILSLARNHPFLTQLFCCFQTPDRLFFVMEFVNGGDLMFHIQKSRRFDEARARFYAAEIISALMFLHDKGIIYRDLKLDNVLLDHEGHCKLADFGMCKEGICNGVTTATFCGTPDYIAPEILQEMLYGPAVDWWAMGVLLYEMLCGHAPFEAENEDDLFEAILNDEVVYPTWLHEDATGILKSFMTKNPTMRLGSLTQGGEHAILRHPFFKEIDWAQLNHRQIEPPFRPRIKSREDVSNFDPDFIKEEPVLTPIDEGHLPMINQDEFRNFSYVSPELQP
Chain of UniProt P23443 (P23443 whole entry, looked up): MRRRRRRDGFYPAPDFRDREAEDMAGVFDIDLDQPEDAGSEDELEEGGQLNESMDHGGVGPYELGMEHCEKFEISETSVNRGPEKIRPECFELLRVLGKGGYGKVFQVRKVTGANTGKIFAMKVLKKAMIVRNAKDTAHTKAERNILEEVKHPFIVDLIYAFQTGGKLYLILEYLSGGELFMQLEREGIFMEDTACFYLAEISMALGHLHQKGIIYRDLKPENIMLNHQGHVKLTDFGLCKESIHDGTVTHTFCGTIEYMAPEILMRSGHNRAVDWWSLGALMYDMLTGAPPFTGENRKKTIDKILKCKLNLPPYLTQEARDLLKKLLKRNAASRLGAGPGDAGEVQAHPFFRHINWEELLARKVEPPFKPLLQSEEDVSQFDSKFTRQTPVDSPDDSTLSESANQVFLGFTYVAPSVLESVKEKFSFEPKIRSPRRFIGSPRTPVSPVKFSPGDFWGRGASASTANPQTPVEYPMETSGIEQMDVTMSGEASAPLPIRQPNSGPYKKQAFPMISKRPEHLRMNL
Chain of SRPK2 (P78362 whole entry, looked up): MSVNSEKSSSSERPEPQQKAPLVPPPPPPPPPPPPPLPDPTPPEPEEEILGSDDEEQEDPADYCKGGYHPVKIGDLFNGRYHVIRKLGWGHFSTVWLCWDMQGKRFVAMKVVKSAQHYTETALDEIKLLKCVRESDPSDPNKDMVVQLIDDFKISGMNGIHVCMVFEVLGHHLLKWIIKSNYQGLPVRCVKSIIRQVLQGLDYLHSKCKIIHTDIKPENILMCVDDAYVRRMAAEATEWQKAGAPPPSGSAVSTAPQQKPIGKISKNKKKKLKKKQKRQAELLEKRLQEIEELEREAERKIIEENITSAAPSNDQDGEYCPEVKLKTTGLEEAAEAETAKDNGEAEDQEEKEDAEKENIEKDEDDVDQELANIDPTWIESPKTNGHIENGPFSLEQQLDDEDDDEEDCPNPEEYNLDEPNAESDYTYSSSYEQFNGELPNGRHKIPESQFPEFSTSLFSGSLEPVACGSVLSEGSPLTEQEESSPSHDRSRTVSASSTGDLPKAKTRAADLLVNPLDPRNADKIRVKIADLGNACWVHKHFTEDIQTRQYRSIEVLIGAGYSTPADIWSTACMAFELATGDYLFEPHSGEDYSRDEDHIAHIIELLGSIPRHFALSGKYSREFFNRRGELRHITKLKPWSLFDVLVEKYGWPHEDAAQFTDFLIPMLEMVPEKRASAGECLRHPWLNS
Chain of AKT1 (P31749 whole entry): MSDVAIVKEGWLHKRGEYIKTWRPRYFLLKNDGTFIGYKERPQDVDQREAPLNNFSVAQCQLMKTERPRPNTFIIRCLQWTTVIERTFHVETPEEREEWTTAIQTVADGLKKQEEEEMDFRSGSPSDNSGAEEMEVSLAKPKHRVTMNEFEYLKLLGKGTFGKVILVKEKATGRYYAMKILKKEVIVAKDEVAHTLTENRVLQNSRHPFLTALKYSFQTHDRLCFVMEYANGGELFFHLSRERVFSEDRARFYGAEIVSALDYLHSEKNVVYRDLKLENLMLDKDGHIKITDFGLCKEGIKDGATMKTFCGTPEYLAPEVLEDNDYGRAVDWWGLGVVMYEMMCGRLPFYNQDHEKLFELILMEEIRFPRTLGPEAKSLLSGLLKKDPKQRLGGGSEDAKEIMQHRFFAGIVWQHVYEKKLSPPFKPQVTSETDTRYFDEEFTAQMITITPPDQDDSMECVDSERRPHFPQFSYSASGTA
Chain of UniProt Q6XUX3 (Q6XUX3 whole entry): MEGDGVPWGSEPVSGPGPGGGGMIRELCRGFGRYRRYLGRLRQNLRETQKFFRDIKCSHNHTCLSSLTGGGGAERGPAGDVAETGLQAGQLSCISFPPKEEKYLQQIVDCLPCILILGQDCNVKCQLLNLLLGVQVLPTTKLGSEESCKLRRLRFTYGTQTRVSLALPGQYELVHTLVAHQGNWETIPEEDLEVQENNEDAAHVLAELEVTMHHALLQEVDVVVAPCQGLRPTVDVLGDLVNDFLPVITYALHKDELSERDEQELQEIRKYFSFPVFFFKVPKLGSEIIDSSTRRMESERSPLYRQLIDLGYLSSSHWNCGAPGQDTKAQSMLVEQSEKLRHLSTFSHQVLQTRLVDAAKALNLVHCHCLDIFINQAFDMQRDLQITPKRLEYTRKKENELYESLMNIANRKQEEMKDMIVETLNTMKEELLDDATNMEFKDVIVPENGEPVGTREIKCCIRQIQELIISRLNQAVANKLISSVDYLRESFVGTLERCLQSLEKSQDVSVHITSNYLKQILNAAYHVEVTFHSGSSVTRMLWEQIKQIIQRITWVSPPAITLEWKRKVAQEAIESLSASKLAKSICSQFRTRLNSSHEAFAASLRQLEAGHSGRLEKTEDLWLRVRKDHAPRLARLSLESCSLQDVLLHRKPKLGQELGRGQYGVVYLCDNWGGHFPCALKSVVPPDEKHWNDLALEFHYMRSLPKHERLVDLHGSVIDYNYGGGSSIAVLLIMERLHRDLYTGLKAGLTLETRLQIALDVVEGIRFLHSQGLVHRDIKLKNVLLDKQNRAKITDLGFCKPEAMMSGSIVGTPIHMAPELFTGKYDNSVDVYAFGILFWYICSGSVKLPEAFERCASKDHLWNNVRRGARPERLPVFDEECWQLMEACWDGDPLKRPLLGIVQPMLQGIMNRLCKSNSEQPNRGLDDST
Chain of LZK (O43283 whole entry): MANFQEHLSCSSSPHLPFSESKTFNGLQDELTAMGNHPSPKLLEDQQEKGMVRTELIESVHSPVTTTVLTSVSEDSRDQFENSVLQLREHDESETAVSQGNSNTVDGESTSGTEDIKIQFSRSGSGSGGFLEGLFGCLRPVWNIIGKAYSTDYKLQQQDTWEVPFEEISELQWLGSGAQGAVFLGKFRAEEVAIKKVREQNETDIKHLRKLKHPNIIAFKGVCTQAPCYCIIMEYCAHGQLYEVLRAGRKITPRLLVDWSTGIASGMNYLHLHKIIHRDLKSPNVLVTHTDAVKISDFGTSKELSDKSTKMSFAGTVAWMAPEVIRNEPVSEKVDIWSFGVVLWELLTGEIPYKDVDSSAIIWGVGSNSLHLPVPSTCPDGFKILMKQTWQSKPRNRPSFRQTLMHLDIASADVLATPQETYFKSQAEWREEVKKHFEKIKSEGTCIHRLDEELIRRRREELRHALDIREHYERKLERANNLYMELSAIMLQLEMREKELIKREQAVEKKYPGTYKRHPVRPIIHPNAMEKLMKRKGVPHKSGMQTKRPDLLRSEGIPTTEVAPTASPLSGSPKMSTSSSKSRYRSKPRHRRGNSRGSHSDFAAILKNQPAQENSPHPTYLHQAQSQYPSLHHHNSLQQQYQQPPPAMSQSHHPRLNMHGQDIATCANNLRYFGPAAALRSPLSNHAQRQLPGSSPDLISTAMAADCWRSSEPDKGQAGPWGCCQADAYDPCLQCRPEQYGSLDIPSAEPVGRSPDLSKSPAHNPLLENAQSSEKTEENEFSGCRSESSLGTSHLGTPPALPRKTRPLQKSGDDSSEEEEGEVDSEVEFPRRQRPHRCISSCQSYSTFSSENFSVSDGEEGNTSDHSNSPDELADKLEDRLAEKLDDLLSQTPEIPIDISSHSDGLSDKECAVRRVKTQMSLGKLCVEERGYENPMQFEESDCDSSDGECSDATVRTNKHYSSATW

Broadly, the pIC50 is −log10 of the IC50, conventionally taken in molar units. As for `CCc1cnn2c(NCc3ccc[n+]([O-])c3)cc(N3CCCC[C@H]3CCO)nc12` [dinaciclib], the pIC50 at CLK1 is less than 4.52.

Take `O=C(NCCNC(=O)c1cc(Nc2cc(C3CC3)[nH]n2)nc(N2CCN(Cc3ccc(S(=O)(=O)F)cc3)CC2)n1)OC1CC/C=C/CCC1` (centres undefined): the pIC50 is less than 4.52 at AKT1 (cell material: Jurkat cells); less than 4.52 on AKT1 (cell material: Jurkat lysate); less than 4.52 at CAMK4 (cell material: Jurkat cells); less than 4.52 on CAMK4 (cell material: Jurkat lysate); 4.57 on MAST1; less than 4.52 on PBK. The pIC50 on PRKCH (cell material: Jurkat cells), at PRKCH (cell material: Jurkat lysate), at RAF1 (cell material: Jurkat cells), on RAF1 (cell material: Jurkat lysate), on SNRK (cell material: Jurkat lysate) and on SRPK2 (cell material: Jurkat cells) was less than 4.52 throughout. Further, the pIC50 at SRPK2 (cell material: Jurkat lysate), at TLK2, at TRRAP, at TXK (cell material: Jurkat cells), on TXK (cell material: Jurkat lysate) and at UniProt P23443 (cell material: Jurkat lysate) was less than 4.52 throughout. Also, at UniProt Q6XUX3, the pIC50 was determined as 5.77.

`Cc1cc(Nc2cc(C(=O)NCCNC(=O)OC3CC/C=C/CCC3)nc(N3CCN(Cc4ccc(S(=O)(=O)F)cc4)CC3)n2)n[nH]1` (centres undefined) yielded a pIC50 on LZK of less than 4.52.

In the case of `C#CCNC(=O)c1cc(Nc2cc(C3CC3)[nH]n2)nc(N2CCN(Cc3ccc(S(=O)(=O)F)cc3)CC2)n1`, the negative-log IC50 (pIC50) at AKT1 (cell material: Jurkat cells) was 4.92; at CAMK4 (cell material: Jurkat cells), 5.09; on MAST1, 5.92; at PBK it was less than 4.52; on PRKCH (cell material: Jurkat lysate) it was less than 4.52; at RAF1 (cell material: Jurkat cells) it was less than 4.52. The pIC50 at SNRK (cell material: Jurkat cells) is 5.47; on SNRK (cell material: Jurkat lysate), less than 4.52; at SRPK2 (cell material: Jurkat cells) it was less than 4.52; on SRPK2 (cell material: Jurkat lysate), less than 4.52; at TLK2, less than 4.52; on TRRAP, less than 4.52. In addition, the pIC50 was 5.4 at TXK (cell material: Jurkat cells), less than 4.52 at TXK (cell material: Jurkat lysate), 5.19 at UniProt P23443 (cell material: Jurkat cells) and less than 4.52 on UniProt P23443 (cell material: Jurkat lysate).

For `C#CCNC(=O)c1cc(Nc2cc(C)[nH]n2)nc(N2CCN(Cc3ccc(S(=O)(=O)F)cc3)CC2)n1`, the pIC50 at UniProt Q6XUX3 turned out to be 5.

On LZK, `CCNC(=O)c1cc(Nc2cc(C3CC3)[nH]n2)nc(N2CCN(Cc3ccc(S(=O)(=O)F)cc3)CC2)n1` had a pIC50 of 5.12.
